Experimental findings from patent US10967078B2, “Radiolabelled mGluR2 PET ligands” (Janssen Pharmaceutica NV, priority 2014, dated 2021) are described below.

One data set concerns the target mGlu3 (Homo sapiens, UniProt Q14832). Briefly: Selectivity for mGluR2 versus mGluR3. It counts as biochemical.
A further data set has as its target mGlu5 (Homo sapiens, UniProt P41594). Briefly: Selectivity for mGluR2 versus mGluR5. It counts as biochemical.
The target of another data set is mGlu7 (Homo sapiens, UniProt Q14831). As to the kind of experiment: Selectivity for mGluR2 versus mGluR7. It counts as biochemical.
Sequence of mGlu7 (Q14831 35-915): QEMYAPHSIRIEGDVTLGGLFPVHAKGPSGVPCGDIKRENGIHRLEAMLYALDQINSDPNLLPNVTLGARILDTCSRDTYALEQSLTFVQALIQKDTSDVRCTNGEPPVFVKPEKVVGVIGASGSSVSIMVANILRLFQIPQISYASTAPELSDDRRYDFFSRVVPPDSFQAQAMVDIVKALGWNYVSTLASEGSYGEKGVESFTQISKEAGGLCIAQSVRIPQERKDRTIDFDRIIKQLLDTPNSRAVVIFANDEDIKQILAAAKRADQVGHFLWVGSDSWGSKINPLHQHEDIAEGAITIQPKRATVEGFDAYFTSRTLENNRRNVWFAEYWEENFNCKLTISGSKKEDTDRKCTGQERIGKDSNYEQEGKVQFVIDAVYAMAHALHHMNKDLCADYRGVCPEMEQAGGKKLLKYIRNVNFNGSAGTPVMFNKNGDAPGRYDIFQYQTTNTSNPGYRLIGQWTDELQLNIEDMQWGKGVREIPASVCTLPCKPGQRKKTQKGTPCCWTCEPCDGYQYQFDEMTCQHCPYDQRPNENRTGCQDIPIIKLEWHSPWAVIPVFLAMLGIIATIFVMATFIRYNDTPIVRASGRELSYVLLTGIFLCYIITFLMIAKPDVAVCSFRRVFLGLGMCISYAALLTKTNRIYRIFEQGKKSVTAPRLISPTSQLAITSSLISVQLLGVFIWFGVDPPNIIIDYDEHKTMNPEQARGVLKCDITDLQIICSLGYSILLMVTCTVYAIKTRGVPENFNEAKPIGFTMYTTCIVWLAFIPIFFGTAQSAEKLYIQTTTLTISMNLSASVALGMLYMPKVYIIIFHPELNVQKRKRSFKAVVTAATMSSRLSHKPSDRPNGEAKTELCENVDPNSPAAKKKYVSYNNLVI
The target of the next data set is mGlu1 (Homo sapiens, UniProt Q13255). Briefly: Selectivity for mGluR2 versus mGluR1. It counts as biochemical.
A further data set deals with mGlu4 (Homo sapiens, UniProt Q14833). As to the kind of experiment: Selectivity for mGluR2 versus mGluR4. It counts as biochemical.
Sequence of mGlu4 (Q14833 33-912): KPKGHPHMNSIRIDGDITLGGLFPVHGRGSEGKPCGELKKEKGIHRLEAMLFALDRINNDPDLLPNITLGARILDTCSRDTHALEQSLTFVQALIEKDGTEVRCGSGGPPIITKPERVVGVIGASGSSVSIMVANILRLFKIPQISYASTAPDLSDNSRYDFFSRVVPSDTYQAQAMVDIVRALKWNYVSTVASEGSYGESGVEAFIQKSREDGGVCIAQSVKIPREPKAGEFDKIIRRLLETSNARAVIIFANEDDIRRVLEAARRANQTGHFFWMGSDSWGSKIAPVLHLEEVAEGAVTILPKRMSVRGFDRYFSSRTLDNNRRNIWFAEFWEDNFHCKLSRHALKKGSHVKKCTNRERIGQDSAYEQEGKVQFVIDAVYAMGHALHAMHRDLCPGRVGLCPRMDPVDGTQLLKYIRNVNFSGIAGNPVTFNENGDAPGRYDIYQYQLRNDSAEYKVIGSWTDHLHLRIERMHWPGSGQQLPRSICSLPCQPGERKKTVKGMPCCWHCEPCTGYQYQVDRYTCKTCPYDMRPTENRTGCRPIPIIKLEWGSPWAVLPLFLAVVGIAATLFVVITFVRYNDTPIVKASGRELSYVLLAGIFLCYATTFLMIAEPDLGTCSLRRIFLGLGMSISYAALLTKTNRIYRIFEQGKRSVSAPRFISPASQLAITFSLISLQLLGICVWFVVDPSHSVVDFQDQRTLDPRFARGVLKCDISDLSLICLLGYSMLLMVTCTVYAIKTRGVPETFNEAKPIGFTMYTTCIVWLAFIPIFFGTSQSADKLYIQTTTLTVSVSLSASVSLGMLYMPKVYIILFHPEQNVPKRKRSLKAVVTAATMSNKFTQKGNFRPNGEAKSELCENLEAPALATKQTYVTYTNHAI
Another data set concerns the target mGlu8 (Homo sapiens, UniProt O00222). As to the kind of experiment: Selectivity for mGluR2 versus mGluR8. It counts as biochemical.
For the next data set, the target named is T1, human mGlu2 receptor (Homo sapiens, UniProt Q14416).
T1 construct: expressed in transfected cells; host or cells: CHO cells
T1 sequence (Q14416 19-872): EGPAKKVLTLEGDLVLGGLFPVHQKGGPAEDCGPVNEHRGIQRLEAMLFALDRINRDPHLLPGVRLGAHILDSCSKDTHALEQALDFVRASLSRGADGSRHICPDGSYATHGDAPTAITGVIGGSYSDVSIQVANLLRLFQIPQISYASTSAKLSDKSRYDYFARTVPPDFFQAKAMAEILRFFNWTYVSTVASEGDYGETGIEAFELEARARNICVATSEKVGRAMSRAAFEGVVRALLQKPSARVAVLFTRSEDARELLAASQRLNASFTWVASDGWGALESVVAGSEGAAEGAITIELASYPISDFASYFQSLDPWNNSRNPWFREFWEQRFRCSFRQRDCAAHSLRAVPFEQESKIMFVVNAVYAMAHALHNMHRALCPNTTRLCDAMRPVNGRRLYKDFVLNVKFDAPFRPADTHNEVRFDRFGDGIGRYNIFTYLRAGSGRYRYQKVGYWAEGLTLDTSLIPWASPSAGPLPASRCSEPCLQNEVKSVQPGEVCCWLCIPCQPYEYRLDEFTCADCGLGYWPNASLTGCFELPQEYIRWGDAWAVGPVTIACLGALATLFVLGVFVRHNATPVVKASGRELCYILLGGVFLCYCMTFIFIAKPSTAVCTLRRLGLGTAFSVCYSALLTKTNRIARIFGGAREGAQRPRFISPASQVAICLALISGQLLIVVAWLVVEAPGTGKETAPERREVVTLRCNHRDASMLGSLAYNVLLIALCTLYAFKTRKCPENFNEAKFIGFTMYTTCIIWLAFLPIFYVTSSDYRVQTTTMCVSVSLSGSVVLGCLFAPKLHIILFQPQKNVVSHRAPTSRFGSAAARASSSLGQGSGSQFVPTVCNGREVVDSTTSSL
Briefly: [35S]GTPγS binding assay, membranes from CHO cells transfected with the human mGlu2 receptor (NAM activity). It counts as biochemical. The protocol: The [^35S]GTPγS binding assay is a functional membrane-based assay used to study G-protein coupled receptor (GPCR) function whereby incorporation of a non-hydrolysable form of GTP, [^35S]GTPγS (guanosine 5′-triphosphate, labelled with […] ^35S), is measured. The G-protein a subunit catalyzes the exchange of guanosine 5′-diphosphate (GDP) by guanosine triphosphate (GTP) and on activation of the GPCR by an agonist, [^35S]GTPγS, becomes incorporated and cannot be cleaved to continue the exchange cycle (Harper (1998) Current Protocols in Pharmacology 2.6.1-10, John Wiley & Sons, Inc.). […]
CHO-cells were cultured to pre-confluence and stimulated with 5 mM butyrate for 24 h. […] Protein concentration was determined by the Bradford method (Bio-Rad, USA) with bovine serum albumin as standard.
Measurement of mGluR2 negative allosteric modulatory activity of test compounds was performed as follows. […] Membrane-bound radioactivity was counted in a Topcount.
The concentration-response curves of representative compounds of the present invention were generated using the Lexis software interface (developed at J&J). Data were calculated as % of the control glutamate response, defined as the response that is generated upon addition of an EC80-equivalent concentration of glutamate. […] The concentration producing half-maximal inhibition was calculated as the IC50. […]
On the technique in general: Binding of GTPγS marks nucleotide exchange on a G protein.

Sequence of mGlu3 (Q14832 23-879): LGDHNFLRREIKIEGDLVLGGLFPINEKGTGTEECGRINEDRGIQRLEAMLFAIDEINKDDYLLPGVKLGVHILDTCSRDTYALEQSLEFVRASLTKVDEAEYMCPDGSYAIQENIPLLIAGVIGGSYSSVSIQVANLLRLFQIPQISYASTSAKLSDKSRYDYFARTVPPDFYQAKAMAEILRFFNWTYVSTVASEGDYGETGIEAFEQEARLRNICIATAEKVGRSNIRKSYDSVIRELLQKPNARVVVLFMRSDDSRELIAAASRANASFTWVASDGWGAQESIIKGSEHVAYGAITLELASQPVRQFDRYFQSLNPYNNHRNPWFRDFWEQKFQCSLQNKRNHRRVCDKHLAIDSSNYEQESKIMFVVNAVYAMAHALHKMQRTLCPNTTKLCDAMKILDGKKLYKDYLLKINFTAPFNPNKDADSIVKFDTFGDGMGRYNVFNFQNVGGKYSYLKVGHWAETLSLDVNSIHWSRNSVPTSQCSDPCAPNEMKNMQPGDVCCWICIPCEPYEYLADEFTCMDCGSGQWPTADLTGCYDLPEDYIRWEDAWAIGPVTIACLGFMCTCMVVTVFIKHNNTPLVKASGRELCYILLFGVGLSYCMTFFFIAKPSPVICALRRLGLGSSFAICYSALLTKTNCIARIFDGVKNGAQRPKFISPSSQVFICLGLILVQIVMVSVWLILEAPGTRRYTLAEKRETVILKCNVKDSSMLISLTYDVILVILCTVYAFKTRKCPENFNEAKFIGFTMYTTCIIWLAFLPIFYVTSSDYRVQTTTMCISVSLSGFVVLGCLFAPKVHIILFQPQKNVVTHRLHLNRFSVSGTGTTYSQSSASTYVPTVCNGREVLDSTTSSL
Sequence of mGlu8 (O00222 34-908): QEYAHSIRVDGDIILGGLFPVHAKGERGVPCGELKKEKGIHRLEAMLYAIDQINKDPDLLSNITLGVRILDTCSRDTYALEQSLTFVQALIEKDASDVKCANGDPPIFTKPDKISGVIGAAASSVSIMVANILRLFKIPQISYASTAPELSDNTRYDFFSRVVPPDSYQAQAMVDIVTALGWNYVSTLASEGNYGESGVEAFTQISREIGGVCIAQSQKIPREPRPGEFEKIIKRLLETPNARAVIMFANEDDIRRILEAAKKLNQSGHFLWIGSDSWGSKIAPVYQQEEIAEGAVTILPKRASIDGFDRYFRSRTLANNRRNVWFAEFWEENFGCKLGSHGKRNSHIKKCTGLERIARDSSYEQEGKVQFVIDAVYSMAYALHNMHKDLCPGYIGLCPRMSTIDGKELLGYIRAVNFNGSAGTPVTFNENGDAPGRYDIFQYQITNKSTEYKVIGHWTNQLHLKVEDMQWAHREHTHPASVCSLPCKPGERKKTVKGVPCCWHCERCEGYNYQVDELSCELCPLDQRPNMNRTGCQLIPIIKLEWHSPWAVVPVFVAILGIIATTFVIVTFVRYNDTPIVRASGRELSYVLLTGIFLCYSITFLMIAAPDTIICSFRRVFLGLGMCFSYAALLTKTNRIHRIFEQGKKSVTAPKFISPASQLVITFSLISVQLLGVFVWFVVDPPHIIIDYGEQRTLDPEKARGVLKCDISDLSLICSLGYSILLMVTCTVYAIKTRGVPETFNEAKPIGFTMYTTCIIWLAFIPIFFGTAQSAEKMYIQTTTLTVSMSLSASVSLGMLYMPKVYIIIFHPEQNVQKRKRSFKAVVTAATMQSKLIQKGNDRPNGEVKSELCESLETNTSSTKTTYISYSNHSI

Turning to `Cc1cc(-c2cnn3c2C(=O)N(c2ccc(C(F)(F)F)cc2)C[C@@H]3C)ccn1` [Co. No. 1, (7S)-7-Methyl-3-(2-methylpyridin-4-yl)-5-[4-(trifluoromethyl)phenyl]-6,7-dihydropyrazolo[1,5-a]pyrazin-4(5H)-one], the “Selectivity over mGlu3” value on mGlu3 was 25.7. Further, the “Selectivity over mGlu5” value on mGlu5 turned out to be 1122.0. For the same molecule, the “Selectivity over mGlu7” value at mGlu7 was found to be 1122.0. Further, the “Selectivity over mGlu1” value on mGlu1 was 1122.0. For the same molecule, the “Selectivity over mGlu4” value on mGlu4 turned out to be 5623.4. For the same molecule, the “Selectivity over mGlu8” value at mGlu8 is listed as 1122.0.

The melting point is the temperature of the solid-liquid transition. Molecule `C[C@H]1CN(c2ccc(Cl)c(Cl)c2)C(=O)c2c(-c3ccnc(F)c3)cnn21` [Co. No. 3, (7S)-5-(3,4-Dichlorophenyl)-3-(2-fluoro-4-pyridyl)-7-methyl-6,7-dihydropyrazolo[1,5-a]pyrazin-4-one] came in with a melting point of 170.3 °C. For the same molecule, the “Selectivity over mGlu3” value on mGlu3 is recorded as 16.2. Also, the “Selectivity over mGlu5” value at mGlu5 amounted to 1819.7. For the same molecule, on mGlu7, the “Selectivity over mGlu7” value was 1819.7. Besides, the “Selectivity over mGlu1” value at mGlu1 amounted to 1819.7. Also, the “Selectivity over mGlu4” value on mGlu4 is 9120.1. For the same molecule, the “Selectivity over mGlu8” value at mGlu8 turned out to be 1819.7.

As usually defined, the Emax is the size of the effect at its maximum, as opposed to the concentration needed. Consider `CNc1cc(-c2cnn3c2C(=O)N(c2ccc(S(F)(F)(F)(F)F)cc2)C[C@@H]3C)ccn1` [Co. No. 4, (7S)-7-Methyl-3-[2-(methylamino)-4-pyridyl]-5-[4-(pentafluoro-λ^6-sulfanyl)phenyl]-6,7-dihydropyrazolo[1,5-a]pyrazin-4-one], for which, at mGlu3, the “Selectivity over mGlu3” value was determined as 77.6. For the same molecule, the IC50 at human mGlu2 receptor (glutamate 60 μM (~EC80), read-out: GTPγS - hmGluR2 anGT pIC50 (converted)) is 3.02 nM. The maximal effect (Emax) on human mGlu2 receptor (maximal % inhibition relative to the control glutamate response, read-out: GTPγS - hmGluR2 anGT Emax) came out at 106%.
